Counter-ions that a name gives are not always drawn.
Legend:
HEK293 cells = test: Live-cell high-content cytotoxicity multiplex assay; format: cell-based; conditions: 100 µM, 6 h
Protocol: To explore whether the compounds affected general cell functions, we performed a live‐cell high‐content assay that allowed for the simultaneous investigation of cellular viability, compound precipitation, and maintenance of membrane integrity and mitochondrial mass.^[ [25] ^]
To assess cell viability, a live cell high‐content screen was performed in HEK293T cells as described previously.^[ [25] ^] In brief, HEK293T cells (ATCC CRL‐1573) were cultured in DMEM plus L‐glutamine (high glucose) supplemented by 10% FBS (Gibco) and penicillin/streptomycin (Gibco). Cells were seeded at a density of 1500 cells/well in 384 well plates in culture medium (cell culture microplate, PS, f‐bottom, µClear, 781 091; Greiner). Cells were stained simultaneously with 60 nM Hoechst33342 (Thermo Scientific), 75 nM Mitotracker red (Invitrogen), 0.3 µL per well annexin V Alexa Fluor 680 conjugate (Invitrogen), and 25 nL per well BioTracker 488 green microtubule cytoskeleton dye (EMD Millipore). The fluorescence and cellular shape were measured after 6 h of compound exposure using a CQ1 high‐content confocal microscope (Yokogawa). […] Images were analyzed using the CellPathfinder software (Yokogawa). Cells were detected and gated in different cell populations as described previously^[ [47] ^] using a machine learning‐based algorithm. Briefly, compound precipitation was detected as Hoechst high‐intensity objects. […]

human Slack = molecular target: T1, human Slack (Homo sapiens, UniProt Q5JUK3); test: FluxOR potassium ion channel assay in HEK-Slack cells; format: cell-based; conditions: for EC50: HEK-Slack cells, Na+-free assay buffer, mean (95% confidence interval)
T1 construct: host or cells: HEK293
T1 sequence (Q5JUK3 1-1230): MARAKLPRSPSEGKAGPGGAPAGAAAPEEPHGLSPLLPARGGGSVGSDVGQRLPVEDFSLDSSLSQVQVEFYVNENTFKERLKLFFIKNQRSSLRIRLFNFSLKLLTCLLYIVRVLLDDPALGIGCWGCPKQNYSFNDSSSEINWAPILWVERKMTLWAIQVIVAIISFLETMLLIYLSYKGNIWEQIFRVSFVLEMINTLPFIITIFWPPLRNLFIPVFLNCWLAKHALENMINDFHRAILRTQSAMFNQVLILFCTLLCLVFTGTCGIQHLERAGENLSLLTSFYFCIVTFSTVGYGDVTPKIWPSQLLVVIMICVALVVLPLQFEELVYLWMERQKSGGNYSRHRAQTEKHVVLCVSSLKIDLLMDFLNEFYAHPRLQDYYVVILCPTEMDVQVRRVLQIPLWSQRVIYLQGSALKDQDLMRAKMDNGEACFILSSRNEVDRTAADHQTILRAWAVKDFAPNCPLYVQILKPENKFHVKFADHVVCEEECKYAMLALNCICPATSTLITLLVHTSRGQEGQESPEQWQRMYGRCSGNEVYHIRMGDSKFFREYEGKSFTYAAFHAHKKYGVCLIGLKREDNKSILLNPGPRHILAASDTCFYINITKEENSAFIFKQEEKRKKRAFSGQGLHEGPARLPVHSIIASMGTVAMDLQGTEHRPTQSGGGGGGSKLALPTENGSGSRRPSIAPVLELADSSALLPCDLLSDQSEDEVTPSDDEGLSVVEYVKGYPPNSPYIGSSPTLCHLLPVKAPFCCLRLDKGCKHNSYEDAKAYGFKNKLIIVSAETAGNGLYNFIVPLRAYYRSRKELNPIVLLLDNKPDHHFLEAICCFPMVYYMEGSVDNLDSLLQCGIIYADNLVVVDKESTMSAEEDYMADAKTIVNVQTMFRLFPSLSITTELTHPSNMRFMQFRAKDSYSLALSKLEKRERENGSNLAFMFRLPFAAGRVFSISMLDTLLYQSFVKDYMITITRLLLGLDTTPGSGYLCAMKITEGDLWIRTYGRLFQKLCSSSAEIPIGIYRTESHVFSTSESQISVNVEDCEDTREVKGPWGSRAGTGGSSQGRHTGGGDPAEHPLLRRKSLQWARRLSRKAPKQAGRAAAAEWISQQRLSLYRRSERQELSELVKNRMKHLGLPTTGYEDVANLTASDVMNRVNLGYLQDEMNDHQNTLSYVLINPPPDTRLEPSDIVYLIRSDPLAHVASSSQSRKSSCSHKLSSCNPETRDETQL
Protocol: The functional activity of this series of compounds against human Slack was determined using a cell‐based FluxOR potassium ion channel assay in cultured HEK293 cells stably expressing human Slack (herein referred to as HEK‐Slack cells) and a Na^+‐free assay buffer to prevent compound‐independent Slack activation by monovalent cations.^[ [14], [24] ^] […] Of the 114 newly synthesized compounds, 31 acted as Slack activators to varying extents. Accordingly, we deemed eight of these as the most interesting candidates.
To determine the Slack‐activating efficacy and potency of the novel compounds, a commercial FluxOR potassium ion channel assay (#10 017; Invitrogen) was used. HEK‐Slack cells were plated at a density of 50 000 cells per well on a poly‐D‐lysine coated (75 µg mL^−1, Sigma–Aldrich) 96‐well, black‐walled microplate with clear bottom (#655 090; Greiner Bio‐One) in DMEM (100 µL per well) containing 10% FBS and 1% penicillin/streptomycin 24 h prior to assaying. In the initial experiments shown in Figure S3A–F (Supporting Information), HEK‐Slack cells were plated at a density of 100 000 cells/well 48 h prior to the assay. On the day of the experiment, the cells were loaded with FluxOR dye according to the manufacturer's protocol. A Na^+‐free assay buffer, adjusted to pH 7.4 with KOH, containing 140 mM choline chloride, 5 mM KCl, 2 mM CaCl2, 2 mM MgSO4, 10 mM HEPES, and 5.55 mM glucose was used. To reduce background fluorescence, all assay components were complemented with a 10% BackDrop Background Suppressor (#B10511; Invitrogen).
All compounds were prepared as a 333 mM stock in DMSO and diluted on the experimental day to a final concentration of 100, 50, 25, 12.5, 6.25, 3.125, or 1.5625 µM in an assay buffer with DMSO adjusted to 0.03%. Before treatment, the cells were washed, and the medium was exchanged for the assay buffer. In a total volume of 90 µL per well, the cells were then incubated for 30 min at 37 °C with compounds at the indicated concentrations, or 0.03% DMSO alone as the vehicle. […] Fluorescence was measured using an Infinite M200 microplate reader (Tecan) with excitation at 485 nm (9 nm bandwidth) and emission at 525 nm (20 nm bandwidth) in the bottom read mode. First, the baseline fluorescence of the individual wells was established. Thereafter cells were stimulated with 20 µL Tl2SO4 (5 mM) solution injected at 100 µL s^−1, and fluorescence was further recorded for 100 s. Assays were run in triplicate. For all time points, the ratio of fluorescence to baseline fluorescence was calculated first for individual wells, and the average was then used.
Dose‐response curves comprising six concentrations were obtained in triplets using fluorescence/fluorescenceBaseline ratios at the 100th s.

human D2S receptor = molecular target: T2, human D2S receptor (Homo sapiens, UniProt P14416); test: [3H]-spiperone competition binding assay, D2; conditions: mean [CI 95%]
T2 construct: expressed in transfected cells; host or cells: CHO
Protocol: (§1) CHO cells stably expressing human dopamine D2short (D2R) and D3 receptor (D3R) were washed and harvested using PBS. […] The cell membrane homogenate was centrifuged (20 000 × g, 20 min, 4 °C), and the resulting cell pellet was resuspended in the binding buffer. Crude membrane extracts were kept at −80 °C until use. Before starting the experiments, cell membranes were thawed, homogenized by sonication (3 × 10 s), and stored in an ice‐cold binding buffer. […] Assays were performed at least in triplicate with appropriate concentrations ranging from 0.01 nM to 100 µM of the test compound. Non‐specific binding was determined using 10 µM haloperidol. By filtering through GF/B filters pretreated with 0.3% (m/v) polyethyleneimine, the bound radioligand was separated from free radioligand using a cell harvester. Radioactivity was measured using liquid scintillation counting. Data were evaluated using the GraphPad Prism 9 software (San Diego, CA, USA) with a nonlinear regression fit.

human D3 receptor = molecular target: T3, human D3 receptor (Homo sapiens, UniProt P35462); test: [3H]-spiperone competition binding assay, D3; conditions: mean [CI 95%]
T3 construct: expressed in transfected cells; host or cells: CHO
Protocol: as §1

[1] = Metabolic stability assay in rat liver microsomes; format: in vitro ADME; conditions: 10 µM, 15, 30 and 60 min
Protocol: We next assessed the metabolic stability of these compounds (10 µM) in rat liver microsomes (Figure 2A). […] Therefore, we assumed that the occupation of metabolically labile sites at the aromatic core and the reduction in electron density at the oxidizable nitrogen atom of the piperazine ring might increase metabolic stability. Indeed, both the introduction of fluorine at R^2 and the introduction of an electron‐withdrawing carboxylic acid linker at R^3 improved metabolic stability. The substitution of chlorine with a trifluoromethyl group at R^1 was also beneficial. In contrast, homopiperazine and hydroxy linkers were metabolically labile.
The solubilized test compound (5 µL, final concentration 10 µM) was preincubated at 37 °C in 432 µL phosphate buffer (0.1 M, pH 7.4) together with 50 µL NADPH regenerating system (30 mM glucose‐6‐phosphate, 4 U mL^−1 glucose 6‐phosphate dehydrogenase, 10 mM NADP, and 30 mM MgCl2). After 5 min, the reaction started upon the addition of 13 µL of microsome mix from the liver of Sprague‐Dawley rats (Invitrogen; 20 mg protein per mL in 0.1 M phosphate buffer) in a shaking water bath at 37 °C. The reaction was stopped by adding 500 µL ice‐cold methanol at 0, 15, 30, and 60 min. The samples were centrifuged at 5000 × g for 5 min at 4 °C and the test compound was quantified from the supernatants by HPLC; the composition of the mobile phase was adapted to the test compound in a range of MeOH 40−90% and water (0.1% formic acid) 10−60%. Flow rate: 1 mL min^−1; stationary phase: Purospher STAR, RP18, 5 µm, 125 × 4; precolumn: Purospher STAR, RP18, 5 µm, 4 × 4; detection wavelength: 254 and 280 nm; injection volume: 50 µL. Control samples were used to evaluate the stability of the test compounds in the reaction mixture. The first control was without NADPH, which is needed for the enzymatic activity of the microsomes, the second control was with inactivated microsomes (incubated for 20 min at 90 °C), and the third control was without the test compound (to determine the baseline). The amounts of test compounds were quantified using an external calibration curve.

mice = test: Pulse oximetry in conscious, freely moving mice; conditions: 10 mg kg−1 i.p., observation period of 30 min
Protocol: To measure cardiovascular function, a pulse oximeter (MouseOX Plus, Starr Life Sciences Corp.) was used in conscious, freely moving mice. After three consecutive days of habituating the mice to the collar clip for at least 30 min, baseline measurements were performed. […] All the datasets were sampled at 1 Hz, error‐corrected according to the manufacturer's instructions, and averaged over 300 s for each time point.

T2 sequence (P14416 1-414 isoform P14416-2): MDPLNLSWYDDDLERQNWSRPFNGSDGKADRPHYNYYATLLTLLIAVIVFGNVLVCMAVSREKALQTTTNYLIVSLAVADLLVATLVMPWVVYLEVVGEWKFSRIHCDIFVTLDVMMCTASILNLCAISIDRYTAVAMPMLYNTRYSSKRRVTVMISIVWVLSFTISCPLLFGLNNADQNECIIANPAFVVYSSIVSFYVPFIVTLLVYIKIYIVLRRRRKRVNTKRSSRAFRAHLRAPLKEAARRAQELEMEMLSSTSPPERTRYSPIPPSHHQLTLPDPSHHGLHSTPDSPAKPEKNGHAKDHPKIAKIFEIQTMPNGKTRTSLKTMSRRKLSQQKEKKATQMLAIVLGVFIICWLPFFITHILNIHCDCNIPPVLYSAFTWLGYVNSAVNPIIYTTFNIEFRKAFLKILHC
T3 sequence (P35462 whole entry): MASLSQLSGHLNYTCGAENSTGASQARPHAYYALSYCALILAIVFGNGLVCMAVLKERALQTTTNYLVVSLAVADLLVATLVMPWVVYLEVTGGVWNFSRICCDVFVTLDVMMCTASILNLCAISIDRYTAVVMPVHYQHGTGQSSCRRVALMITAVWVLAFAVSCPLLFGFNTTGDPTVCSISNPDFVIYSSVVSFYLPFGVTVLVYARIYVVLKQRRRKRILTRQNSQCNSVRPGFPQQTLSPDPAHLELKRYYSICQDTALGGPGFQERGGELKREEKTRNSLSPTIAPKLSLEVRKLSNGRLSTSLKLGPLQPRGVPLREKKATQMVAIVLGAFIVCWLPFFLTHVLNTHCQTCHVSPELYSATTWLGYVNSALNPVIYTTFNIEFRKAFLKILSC

In the case of CN1CCN(C2=Nc3ccccc3Oc3ccc(C(F)(F)F)cc32)CC1 [Compound 1], the compound precipitation (HEK293 cells) is reported as “compound precipitation was only detected”, the Emax (human Slack) is reported as 114% and the EC50 (human Slack) is reported as 6.3 µM. It also gave a Ki (human D2S receptor) of 0.0036 µM and a Ki (human D3 receptor) of 0.0122 µM.
Work on CN1CCCN(C2=Nc3ccccc3Oc3ccc(C(F)(F)F)cc32)CC1 [Compound 2] yielded an Emax (human Slack) of 63.1%, an EC50 (human Slack) of 3.2 µM and a Ki (human D2S receptor) of 0.0828 µM. It also gave a Ki (human D3 receptor) of 0.0624 µM.
In the case of CN1CCN(C2=Nc3cc(F)ccc3Oc3ccc(C(F)(F)F)cc32)CC1 [Compound 3], the Emax (human Slack) is reported as 199%, the EC50 (human Slack) is reported as 41.5 µM and the Ki (human D2S receptor) is reported as 0.00289 µM. It also gave a Ki (human D3 receptor) of 0.0226 µM.
With OCCN1CCN(C2=Nc3ccccc3Oc3ccc(Cl)cc32)CC1 [Compound 4] the Emax (human Slack) was 223%, the EC50 (human Slack) was 26 µM and the Ki (human D2S receptor) was 0.05 µM. The Ki (human D3 receptor) was 0.176 µM.
Compound OCCOCCN1CCN(C2=Nc3ccccc3Sc3ccc(Cl)cc32)CC1 [Compound 5] has an Emax (human Slack) of 87.4%, an EC50 (human Slack) of 30 µM and a Ki (human D2S receptor) of 0.0449 µM. It also gave a Ki (human D3 receptor) of 0.0634 µM.
In the case of O=C(O)COCCN1CCN(C2=Nc3ccccc3Oc3ccc(C(F)(F)F)cc32)CC1 [Compound 7], the Emax (human Slack) is reported as 177%, the EC50 (human Slack) is reported as 62.5 µM and the metabolic stability [1] is reported as “highest metabolic stabilities”. The Ki (human D2S receptor) was 0.0274 µM and the Ki (human D3 receptor) was 0.0407 µM.
For O=C(O)COCCN1CCCN(C2=Nc3ccccc3Oc3ccc(C(F)(F)F)cc32)CC1 [Compound 8], the Emax (human Slack) was 186%, the EC50 (human Slack) was 50.9 µM and the Ki (human D2S receptor) was 0.134 µM. The Ki (human D3 receptor) was 0.421 µM.
With CN1CC[C@]23c4c5ccc(O)c4O[C@H]2[C@@H](O)C=C[C@H]3[C@H]1C5 [morphine, morphine sulfate pentahydrate, reference compound] the breath rate (mice) was “reduced” and the heart rate (mice) was “reduced”.

— publication PMC11022729 (Advanced Science, 2024)
